Assay results reported in patent publication US10869931B2, “Polyethylene glycol-modified angiogenesis inhibitor HM-1 and application thereof” (NANJING ANJI BIOLOGICAL TECHNOLOGY CO.,LTD, priority 2016, dated 2020).
Marks after values point to notes of the source that are not given here. Where no end group is shown, it is not given here.

Legend:
[1] = tested on: sarcoma tumor cells; assay: MTT proliferation inhibition, sarcoma cells; type: cell-based, human; set-up: concentration or dose not given beside the values; conditions: 48 h
Experimental: The activity of mPEG-HM-1 to inhibit the growth of various tumor cells was examined by MTT assay. The tumor cells were cultured to a concentration of 90% or more in a 37° C., 5% CO2 incubator and collected by trypsinization. The cells were resuspended in the culture medium and counted under a microscope to adjust the cell concentration to 2×10^4 cells/mL, the cell suspension was inoculated into a 96-well plate at 100 μL/well and incubated overnight at 37° C. in a 5% CO2 incubator. mPEG-HM-1 was diluted with the culture solution to each predetermined concentration. Docetaxel is diluted to the final concentration with the culture medium. After the cells were fully attached, each dilution was added to a 96-well plate (100 μL/well). The mPEG-HM-1 dilution was added as a drug-administered group, and docetaxel was added as a positive control group, and a culture solution without any drug was used as a negative control group. Incubate for 48 h at 37° C. in a 5% CO2 incubator. 5 mg/mL of MTT was added to a 96-well plate at 20 μL per well, and incubation was continued for 4 hours. The medium was aspirated, dissolved in 150 μL of DMSO per well, and gently mixed by shaking for 10 min. The absorbance was measured at a measurement wavelength of 570 nm and a reference wavelength of 630 nm using a microplate reader, and the rate of growth inhibition (proliferation inhibition, PI) was calculated. The formula is as follows: PI (%)=1−administration group/negative group
The test was repeated 3 times independently, and the results obtained by the test were expressed as mean±SD, and the test results are shown in Table 15 to Table 18.

[2] = tested on: xylene-induced ear swelling in Kunming mice; assay: Xylene-induced ear swelling in mice; type: in vivo, mouse; conditions: for Inhibition rate: ear swelling vs control
Experimental: Kunming mice were used. The saline group was used as the blank control group, the aspirin group (200 mg/kg) as the positive control group, and the mPEG-HM-1 administration group as the experimental group. Mice were administered once daily for 5 consecutive days. The blank control group was given an equal volume of physiological saline. One hour after the last administration, 0.05 mL of xylene was applied to both sides of the right ear of the mice to cause inflammation, and the left ear was not coated as normal ears. After 2 h, the mice were sacrificed by dislocation, and the ears were cut along the auricle. Ear pieces were taken with a puncher, weighed, and the swelling degree and swelling rate were calculated. Swelling degree=right ear piece weight-left ear piece weight, swelling rate=(swelling degree/left ear piece weight)×100%. Statistical t-test was performed on the test results, *P<0.05 was a significant difference, and **P<0.01 was a very significant difference. See Table 31 to Table 34 for the results.

[3] = tested on: adjuvant arthritis (AA) SD rats; assay: Adjuvant arthritis (AA) rat model; type: in vivo; conditions: AA SD rats; for Clinical score: maximum score 16
[4] = tested on: corneal neovascularization in BALB/c mice; assay: Alkali-burn corneal neovascularization in BALB/c mice (CD31 microvessel density); type: in vivo, mouse; conditions: day 14 after alkali burn, intravitreal once a day for 1 week; for Inhibition rate: corneal microvessel density vs control; for MVD: microvessel density (CD31) of cornea
Source text: (1) Preparation of corneal neovascularization model induced by alkali burn in BALB/c mice: mice were randomly grouped and labeled as mPEG-HM-1 experimental group and control group, 5 […] in each group, respectively, was given mPEG-HM-1 and saline by Intravitreal injection after alkali burn, once a day for 1 week. The inflammatory reaction and neovascularization of the cornea were observed under slit lamp microscope at 1 d, 7 d, and 14 d after alkali burn. On the 14th day after alkali burn, the corneal neovascularization was recorded under the slit lamp microscope in the anterior segment of the eye. All the mice were euthanized by cervical dislocation and the eyeballs were removed, washed with saline to rid of blood, and was fixed in 4% paraformaldehyde for 1.5 h, dehydrated in PBS containing 30% sucrose overnight, embedded in OCT frozen section embedding agent, stored in −80° C. refrigerator, frozen section 8 μm, and underwent immunocytochemical detection of CD31 expression. (2) Quantitative measurement of corneal tissue microvessel density: Microvessel density (MVD) is an indicator for evaluating angiogenesis. Vascular endothelial cells were labeled with anti-CD31 antibody by immunohistochemistry, and the number of microvessels per unit area was counted to measure the degree of neovascularization. Standards for counting microvessels: Microscopically, the endothelial cells or cell clusters that are clearly demarcated from adjacent tissues in the corneal tissue and stained brown or brown are counted in the neovascularization. The number of new blood vessels in the whole section was counted under a 10×20 microscope. After the corneal tissue was photographed, the entire corneal tissue area was calculated by image processing software Image J, and the neovascular density of the whole section was determined. The test was repeated 3 times independently. The results obtained by the test were expressed as mean±SD, and a statistical T test was performed. *P<0.05 was a significant difference, and **P<0.01 was a very significant difference.

[5] = tested on: neovascularization in rat model of premature retinopathy; assay: Fluctuating-oxygen rat model of premature retinopathy (endothelial nuclei count); type: in vivo; conditions: day 14
Experimental: A fluctuating oxygen-induced animal model was used to randomly divide the newborn rats that were naturally delivered on the same day (within 12 hours) into three groups: the oxygenated model group, the oxygenated treatment group, and the normal control group. The oxygenated model group was subdivided into three subgroup models and along with the oxygenated treatment group was placed in a semi-closed oxygen chamber made of plexiglass. The chamber was connected to medical oxygen, and the oxygen analyzer was adjusted to a concentration of 80%±2%. After 24 hours, Nitrogen gas was introduced into the oxygen chamber, and the oxygen concentration was adjusted to 10%±2% and maintained for 24 h. This process was repeated, so that the oxygen concentration in the oxygen chamber is switched between 80% and 10% every 24 hours, and then transferred to the air for 7 days. The oxygen concentration was monitored 8 times a day, and the ambient temperature in the control cabin was 23° C.±2° C. Bedding change, adding food, changing water and replacing mother rats were performed once a day. The normal control group was placed in an animal facility environment. […] The oxygenated therapeutic components were divided into four subgroups, and on the 7th day of modeling, mPEG-SC-HM-1, mPEG2-NHS-HM-1, mPEG-ALD10k-HM-1, and mPEG-bALD-HM-1 were respectively administered by intravitreal injection. Only normal saline was administered to the oxygen model group and the control group. The administrations continued for 1 week. […] After immersion in wax, serial section at thickness of 4 μm was performed, wherein the sections were kept away from the optic disc. The sections are parallel to the sagittal plane of the cornea to the optic disc. Ten sections per eyeball were randomly selected from each eyeball to be stained with hematoxylin and eosin, and the number of vascular endothelial cells that broke through the retinal inner membrane was counted (only the vascular endothelial nucleus closely related to the inner retinal membrane was counted), and the average numbers of endothelial cells per eyeball per slice was counted.

[6] = 40 mg/kg once daily for 5 days, 2 h after xylene
[7] = 80 mg/kg once daily for 5 days, 2 h after xylene
[8] = 160 mg/kg once daily for 5 days, 2 h after xylene
[9] = 160 mg/kg once daily for 5 days
[10] = 80 mg/kg subcutaneous once every three days
[11] = 200 μg intravitreal for 1 week from day 7, vascular endothelial nuclei per slice
[12] = 5 mg/kg once daily for 5 days, right minus left ear piece weight 2 h after xylene
[13] = 10 mg/kg once daily for 5 days, 2 h after xylene
[14] = 20 mg/kg once daily for 5 days, 2 h after xylene
[15] = 10 mg/kg subcutaneous once every three days
[16] = 25 μg intravitreal for 1 week from day 7, vascular endothelial nuclei breaking through inner retinal membrane per slice
[17] = 40 mg/kg subcutaneous once every three days

| Substance | rate of growth inhibition [1] [%] | Swelling [2, 6] | Inhibition rate ([2]; 40 mg/kg once daily for 5 days) [%] | Swelling [2, 7] | Inhibition rate ([2]; 80 mg/kg once daily for 5 days) [%] | Swelling [2, 8] | Inhibition rate [2, 9] [%] | Joint swelling [3, 10] [mm] | Left and right paw swelling [3, 10] [mm] | Clinical score [3, 10] | Inhibition rate [4] [%] | MVD [4] | Cell nuclei count [5, 11] | Inhibition rate ([2]; 5 mg/kg once daily for 5 days) [%] | Swelling [2, 12] [mg] | Swelling [2, 13] | Inhibition rate ([2]; 10 mg/kg once daily for 5 days) [%] | Swelling [2, 14] | Inhibition rate ([2]; 20 mg/kg once daily for 5 days) [%] | Joint swelling [3, 15] [mm] | other results |
| --- | --- | --- | --- | --- | --- | --- | --- | --- | --- | --- | --- | --- | --- | --- | --- | --- | --- | --- | --- | --- | --- |
| mPEG-SC40k-Arg-Gly-Ala-Asp-Arg-Ala-Gly-Gly-Gly-Gly-Arg-Gly-Asp ({mPEG‑SC 40 kDa}-RGADRAGGGGRGD) [mPEG-SC40k-HM-1] | 45.26 ± 11.61 | 5.51 ± 0.13 mg | 10.27 | 4.76 ± 0.72* mg | 22.42 | 3.87 ± 0.27** mg | 37.01 | 0.71 ± 0.11 | 3.83 ± 0.62 | 5.88 ± 1.08 | 43.48 | 37.72 ± 4.153** | 8.089 ± 2.935 | – | – | – | – | – | – | – | – |
| mPEG-SC5k-Arg-Gly-Ala-Asp-Arg-Ala-Gly-Gly-Gly-Gly-Arg-Gly-Asp ({mPEG‑SC 5 kDa}-RGADRAGGGGRGD) [mPEG-SC5k-HM-1] | 39.42 ± 11.15 | – | – | – | – | – | – | – | – | – | 40.52 | 39.69 ± 3.527* | – | 9.57 | 5.55 ± 0.21 | 4.90 ± 0.35* mg | 20.13 | 4.17 ± 0.19** mg | 32.10 | 0.74 ± 0.18 | Left and right paw swelling [3, 15]: 3.96 ± 0.71 mm; Clinical score [3, 15]: 5.95 ± 1.07; Cell nuclei count [5, 16]: 9.104 ± 3.087 |
| mPEG-bALD40k-Arg-Gly-Ala-Asp-Arg-Ala-Gly-Gly-Gly-Gly-Arg-Gly-Asp ({mPEG‑bALD 40 kDa}-RGADRAGGGGRGD) [mPEG-bALD40k-HM-1] | 47.90 ± 10.70 | 5.25 ± 0.12 mg | 13.45 | 4.68 ± 0.72* mg | 22.94 | 4.06 ± 0.26** mg | 33.09 | 0.74 ± 0.18 | 3.81 ± 0.62 | 5.78 ± 1.05 | 45.27 | 36.52 ± 6.537** | 8.539 ± 2.218 | – | – | – | – | – | – | – | – |
| mPEG-bALD5k-Arg-Gly-Ala-Asp-Arg-Ala-Gly-Gly-Gly-Gly-Arg-Gly-Asp ({mPEG‑bALD 5 kDa}-RGADRAGGGGRGD) [mPEG-bALD5k-HM-1] | 41.42 ± 10.03 | – | – | – | – | – | – | – | – | – | 43.10 | 37.97 ± 3.914* | – | 10.36 | 5.44 ± 0.19 | 4.83 ± 0.30* mg | 20.47 | 4.18 ± 0.25** mg | 31.08 | 0.73 ± 0.18 | Left and right paw swelling [3, 15]: 3.94 ± 0.65 mm; Clinical score [3, 15]: 5.92 ± 1.11; Cell nuclei count [5, 16]: 8.852 ± 2.933 |
| mPEG2-NHS40k-Arg-Gly-Ala-Asp-Arg-Ala-Gly-Gly-Gly-Gly-Arg-Gly-Asp ({mPEG2‑NHS 40 kDa}-RGADRAGGGGRGD) [mPEG2-NHS40k-HM-1] | 46.46 ± 11.54 | 5.47 ± 0.12 mg | 11.52 | 4.83 ± 0.67* mg | 21.88 | 4.19 ± 0.34** mg | 32.26 | 0.73 ± 0.14 | 3.81 ± 0.63 | 5.89 ± 1.07 | 43.19 | 37.91 ± 4.273** | 8.495 ± 3.036 | – | – | – | – | – | – | – | – |
| mPEG-bALD20k-Arg-Gly-Ala-Asp-Arg-Ala-Gly-Gly-Gly-Gly-Arg-Gly-Asp ({mPEG‑bALD 20 kDa}-RGADRAGGGGRGD) [mPEG-bALD20k-HM-1] | 50.91 ± 10.64 | 4.64 ± 0.34* mg | 23.62 | 3.78 ± 0.27** mg | 37.76 | – | – | – | – | – | 47.84 | 34.81 ± 6.817** | – | – | – | – | – | 5.03 ± 0.18 mg | 17.13 | – | Joint swelling [3, 17]: 0.77 ± 0.23 mm; Left and right paw swelling [3, 17]: 3.78 ± 0.63 mm; Clinical score [3, 17]: 5.68 ± 1.10; Cell nuclei count ([5]; 100 μg intravitreal for 1 week from day 7, vascular endothelial nuclei per slice): 7.158 ± 1.724 |
